For one assay, the system named is Escherichia coli. Briefly: Antibacterial effect, broth micro dilution. The assay is classed as cell-based.
The test system of assay [1] is MSSA (Methicillin Sensitive Staphylococcus aureus). Briefly: MIC, broth micro dilution. To be noted: Staphylococcus aureus.
Protocol: (§1) According to CLSI guideline the Minimal Inhibitory Concentrations (MICs) of the prepared compounds were determined with the broth micro dilution method. After an overnight growth on 5% bovine blood agar plates at 35 °C bacterial strains were suspended in physiological saline in order to reach the density of 0.5 McFarland for inoculation. Stock solutions containing different concentrations of the substances were prepared in DMSO and H2O (1:1). These were twofold serially diluted from 256 to 0.5 mg/l in Mueller–Hinton broth, and 100 ml of each dilution was inoculated with 10 ml of each bacterial suspension.
The subject of assay [2] is Klebsiella pneumoniae carbapenemase-producing bacteria. Briefly: Antibacterial effect, broth micro dilution.
Protocol: as §1
The test system of assay [3] is SARS-CoV-2. Briefly: SARS-CoV-2 cytopathic effect (CPE) inhibition assay in Vero E6 cells (XTT). The assay is classed as cell-based. Conditions: Severe acute respiratory syndrome coronavirus 2, Vero C1008, 72 h; Vero E6 cells, 3 days post-infection, XTT.
Assay [4] concerns SARS-CoV-2. The assay can be described thus: SARS-CoV-2 immunofluorescence assay (nucleoprotein expression) in Vero E6 cells. The assay is classed as cell-based. To be noted: Severe acute respiratory syndrome coronavirus 2, Vero C1008, 72 h, three days.
A further assay concerns Pseudomonas aeruginosa. Briefly: Antibacterial effect, broth micro dilution. The assay is classed as cell-based.
The subject of assay [5] is MRSA (Methicillin Resistant Staphylococcus aureus). The assay can be described thus: MIC, broth micro dilution. To be noted: Staphylococcus aureus.
Protocol: as §1
Assay [6] has as its system multidrug-resistant Acinetobacter baumannii. Briefly: Antibacterial effect, broth micro dilution.
Protocol: as §1

Two compounds from paper PMC10638401, “Mannich-type modifications of (−)-cannabidiol and (−)-cannabigerol leading to new, bioactive derivatives” (Scientific Reports, 2023) can be followed below.

The MIC is the lowest concentration found to suppress growth. A low value points to a more susceptible organism. For orientation: EC50 means the midpoint of the concentration-response curve. A high value points to a less potent agent.

Molecules are shown by their SMILES. Values after ≈ are worked out from the molar mass of the structure shown.

For `C=C(C)[C@@H]1CCC(C)=C[C@H]1c1c(O)cc(CCCCC)cc1O` [Compound 1, (−)-Cannabidiol], the “antibacterial effect (no effect up to)” value (in the assay on Escherichia coli; in assay [2]; with Pseudomonas aeruginosa; in assay [6]) was over 256 µg/mL in each case. The MIC in assay [1] and in assay [5] was 4 µg/mL (≈ 12.7 µM) in each case. The figures for the EC50 in the assay on SARS-CoV-2 [3] and in the assay on SARS-CoV-2 [4] were 5.1 ± 0.99 µM and 8.3 ± 0.28 µM, respectively.

With `C=C(C)[C@@H]1CCC(C)=C[C@H]1c1c(O)cc(CCCCC)c(COCC)c1O` [Compound 9], the MIC in assay [1] and in assay [5] was over 256 µg/mL each time. Besides, the values for the EC50 in the assay with SARS-CoV-2 [3] and with SARS-CoV-2 [4] were 22 ± 3 µM and about 94 µM, respectively.
